The text below walks through data of US20250017889A1, “INHIBITORS OF P1B-TYPE ATPASES” (THE CURATORS OF THE UNIVERSITY OF MISSOURI, priority 2021, published 2025).

One assay deals with T1, ATP7B (Homo sapiens, UniProt P35670).
T1 construct: expressed in transfected cells; host or cells: HEK293 (detergent-free lysate)
T1 sequence (P35670 1-1465): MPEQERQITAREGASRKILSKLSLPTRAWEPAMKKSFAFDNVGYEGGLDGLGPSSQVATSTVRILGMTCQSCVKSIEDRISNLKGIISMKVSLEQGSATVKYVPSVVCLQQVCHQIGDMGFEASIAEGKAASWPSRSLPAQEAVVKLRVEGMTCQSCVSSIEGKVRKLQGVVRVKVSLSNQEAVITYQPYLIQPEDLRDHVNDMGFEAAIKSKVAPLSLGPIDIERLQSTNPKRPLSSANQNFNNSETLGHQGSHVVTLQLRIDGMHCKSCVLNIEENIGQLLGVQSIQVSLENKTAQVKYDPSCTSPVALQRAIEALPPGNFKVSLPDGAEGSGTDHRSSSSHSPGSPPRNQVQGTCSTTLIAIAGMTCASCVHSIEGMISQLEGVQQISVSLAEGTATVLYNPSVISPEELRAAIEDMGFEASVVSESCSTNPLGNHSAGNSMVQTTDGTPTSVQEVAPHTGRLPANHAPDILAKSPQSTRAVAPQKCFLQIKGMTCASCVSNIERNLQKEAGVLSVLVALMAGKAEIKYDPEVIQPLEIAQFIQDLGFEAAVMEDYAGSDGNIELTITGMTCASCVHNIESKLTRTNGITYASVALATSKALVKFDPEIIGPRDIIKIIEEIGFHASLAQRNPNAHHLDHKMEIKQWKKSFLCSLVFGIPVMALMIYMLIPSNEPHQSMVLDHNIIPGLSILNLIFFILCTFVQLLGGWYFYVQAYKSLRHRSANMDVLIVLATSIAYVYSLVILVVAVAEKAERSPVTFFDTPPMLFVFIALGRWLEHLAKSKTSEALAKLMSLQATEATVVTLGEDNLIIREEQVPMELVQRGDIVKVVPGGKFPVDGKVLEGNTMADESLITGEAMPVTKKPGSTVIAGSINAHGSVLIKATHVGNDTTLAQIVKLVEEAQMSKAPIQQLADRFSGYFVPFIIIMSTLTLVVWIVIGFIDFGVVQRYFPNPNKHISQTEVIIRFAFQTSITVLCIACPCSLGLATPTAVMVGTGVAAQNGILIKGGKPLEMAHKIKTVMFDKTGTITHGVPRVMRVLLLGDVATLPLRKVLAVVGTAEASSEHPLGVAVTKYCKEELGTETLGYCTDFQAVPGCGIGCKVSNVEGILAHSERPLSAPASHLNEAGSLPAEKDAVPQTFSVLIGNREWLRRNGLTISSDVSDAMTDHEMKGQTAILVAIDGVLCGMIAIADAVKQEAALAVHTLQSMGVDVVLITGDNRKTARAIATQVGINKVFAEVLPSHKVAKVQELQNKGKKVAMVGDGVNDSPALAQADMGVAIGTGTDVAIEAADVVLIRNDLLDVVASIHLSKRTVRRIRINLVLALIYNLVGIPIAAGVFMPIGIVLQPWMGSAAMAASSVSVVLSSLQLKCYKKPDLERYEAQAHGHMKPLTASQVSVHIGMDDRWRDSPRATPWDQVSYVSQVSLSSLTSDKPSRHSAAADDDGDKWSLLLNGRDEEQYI
The assay is described as follows: Microscale thermophoresis (MST) binding to GFP-ATP7B in HEK293 cell lysates. The conditions noted are these: MST analysis; read-out: affinity for ATP7B. The source says: Coordinating residues D935 and E798 are predicted to bind copper during transport.
A general note: Microscale thermophoresis detects binding through changes in fluorescence in a small temperature gradient.

In assay [1] the test system is 4T1, B16 and HEK293 cell lines. As to the kind of experiment: Cellular copper concentrations by ICP-MS. Format: cell-based. The note with it: 10 μM, 24 hours. Here is the method: Since ATP7A functions in copper export from cells, an inhibitor of ATP7A activity would be expected to increase cellular copper concentrations. […] After 24 hours, cellular copper concentrations were measured using inductively coupled plasma mass spectroscopy (ICP-MS).

For assay [2], the system named is 4T1 breast cancer cells and LLC lung cancer cells. As to the kind of experiment: In vitro scratch assay of cell motility (gap closure). Type of assay: cell-based. The conditions noted are these: 10 μM. The source says:
LOX activity is known to be important for the motility of cancer cells. In this assay, a gap (scratch) was created in a confluent monolayer of cells and closure of the gap in the presence or absence of MKV3 was monitored by video microscopy. […] Dashed lines indicate scratch starting points (12A and 12C). […] The requirement for ATP7A in cancer cell motility is consistent with its role in activation of lysyl oxidase enzymes.

For assay [3], the system named is ATP7A trafficking in 4T1 breast cancer cells. The assay is described as follows: Copper-stimulated trafficking of ATP7A by immunofluorescence microscopy. Type of assay: cell-based. The conditions noted are these: 10 μM, 4 h, 4T1 cells. Here is the method: Since the copper-stimulated trafficking of ATP7A is dependent on its transport activity, an inhibitor of ATP7A would be expected to block copper-stimulated trafficking of ATP7A. 4T1 breast cancer cells were pre-grown on glass coverslips for 16 hours in media containing 10 μM of the copper chelator bathocuproine disulfonate to create a baseline of low copper levels. […] After 4 h, the cells were fixed, permeabilized and stained with anti-ATP7A antibodies (green). Nuclei were labeled with DAPI stain. In vehicle treated control cells, the ATP7A protein was strongly detected in the perinuclear region (13A), which is consistent with its known location in the trans-Golgi compartment. As expected, the copper treatment stimulated ATP7A trafficking from the perinuclear region into cytoplasmic vesicles (13B).

A further assay concerns the target T2, ATP7B (hATP7B) (Homo sapiens, UniProt P35670).
T2 construct: expressed in transfected cells; host or cells: B16 melanoma ATP7A^KO cells (mouse), transient transfection
T2 sequence (P35670 1-1465): T1 sequence (P35670 1-1465)
The assay is described as follows: Tyrosinase activation in B16 ATP7A^KO cells transfected with human ATP7B. Type of assay: cell-based. The conditions noted are these: 10 μM, 24 h, ATP7A^KO melanoma cells. The source says: Prior studies have shown that exogenously expressed ATP7B can activate tyrosinase in cells lacking ATP7A. For these studies, a B16 melanoma cell model was used in which tyrosinase activity can be detected by in situ oxidation of L-DOPA to DOPAchrome (10A). As shown earlier, B16 cells deleted for the ATP7A gene (ATP7A^KO) completely lack tyrosinase activity (10B). […] Quantification of tyrosinase activity in these cells is shown (10G). Data represent mean±SEM; ****p<0.0001 of three independent replicates.

In assay [4] the test system is Cu^S cells complemented with ATP7B. As to the kind of experiment: Copper toxicity in Cu^S cells complemented with ATP7B. Format: cell-based. The note with it: 10 μM, 50% cytotoxic copper concentration. The source says:
8A illustrates a copper sensitive fibroblast cell line (Cu^S) generated by deleting genes encoding ATP7A, metallothionein-I (MT-I) and metallothionein-II (MT-II). Cu^S cells cannot be propagated in regular medium (DMEM) unless a copper chelator (BCS) is supplied to the medium.
Cu^S cell lines were derived that were complemented by either ATP7A, ATP7B or MT-II.

`N#CC(C(=O)Nc1cccc(C(F)(F)F)c1)C(=S)Nc1ccccc1Cl` (stereo not shown) [MKV3]: at ATP7B, the Kd was determined as 76 nM. Further, in assay [1], the cellular copper concentrations result is reported as “significantly increased”. For the same molecule, the “rate of gap closure” value in assay [2] (4T1 cells) and in assay [2] (LLC cells) was “significantly reduced” in each case. Further, the “copper-stimulated trafficking of ATP7A” value in assay [3] was “blocked”. Besides, the “activation of tyrosinase activity by ATP7B” value at ATP7B (hATP7B) is recorded as “prevented activation of tyrosinase activity”. For the same molecule, in assay [4], the copper toxicity entry is listed as “enhanced copper toxicity”.
